Data from publication PMC11079024, “Identification of a family of species-selective complex I inhibitors as potential anthelmintics” (Nature Communications, 2024).

System: not listed separately
Experiment: in vitro
Settings: human

SMILES	CC50 at 2 days [µM]
Cc1nc2ccccc2n1Cc1ccc(C(C)(C)C)cc1 [Compound 5521938]	35.3

Same assay, conditions: human, HEK293 Cell Viability Assay LC50, HEK293 cells; estimated from fitted dose-response curves

SMILES	CC50 at 2 days [µM]
Nc1nc2ccccc2n1CCCOc1ccccc1 [Compound 7915320]	60

Same assay, conditions: human, HEK293 Cell Viability Assay LC50, HEK293 cells; estimated from fitted dose-response curves; mean of at least two biological replicates

SMILES	CC50 at 2 days [µM]
CCn1c(/C=C/c2ccc(F)cc2)nc2ccccc21 [Compound 7147614]	41
COc1ccccc1/C=C/c1nc2ccccc2[nH]1 [Compound 7148894]	< 12.5

System: L1 wild-type C. elegans
Experiment: microbe, parasite or virus in culture
Settings: Caenorhabditis elegans, read-out: C. elegans KCN Survival Assay LC50, estimated from fitted dose-response curves; mean of at least two biological replicates

SMILES	LC50 [µM]
Nc1nc2ccccc2n1CCCOc1ccccc1 [Compound 7915320]	23.7
CCn1c(/C=C/c2ccc(F)cc2)nc2ccccc21 [Compound 7147614]	14.4
COc1ccccc1/C=C/c1nc2ccccc2[nH]1 [Compound 7148894]	9.02
Cc1nc2ccccc2n1Cc1ccc(C(C)(C)C)cc1 [Compound 5521938]	11

Target: C. elegans (N2) complex I (NADH:ubiquinone oxidoreductase) (Caenorhabditis elegans, UniProt P24887+Q93873+Q94360)
Sequence (Q94360 17-199): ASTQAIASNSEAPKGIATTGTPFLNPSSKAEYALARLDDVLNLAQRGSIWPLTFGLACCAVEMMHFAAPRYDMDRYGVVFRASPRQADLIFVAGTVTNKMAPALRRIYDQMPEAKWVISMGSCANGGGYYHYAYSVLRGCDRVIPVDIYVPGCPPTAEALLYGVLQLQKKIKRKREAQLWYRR
Sequence (P24887 whole entry): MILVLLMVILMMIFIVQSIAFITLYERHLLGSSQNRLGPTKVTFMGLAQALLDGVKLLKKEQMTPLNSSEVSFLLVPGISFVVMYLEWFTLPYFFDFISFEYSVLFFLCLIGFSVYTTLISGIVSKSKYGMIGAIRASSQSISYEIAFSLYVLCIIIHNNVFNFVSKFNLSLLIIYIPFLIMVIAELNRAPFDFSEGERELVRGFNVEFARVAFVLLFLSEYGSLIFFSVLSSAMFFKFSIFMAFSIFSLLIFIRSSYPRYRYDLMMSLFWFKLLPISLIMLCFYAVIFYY
Sequence (Q93873 31-482): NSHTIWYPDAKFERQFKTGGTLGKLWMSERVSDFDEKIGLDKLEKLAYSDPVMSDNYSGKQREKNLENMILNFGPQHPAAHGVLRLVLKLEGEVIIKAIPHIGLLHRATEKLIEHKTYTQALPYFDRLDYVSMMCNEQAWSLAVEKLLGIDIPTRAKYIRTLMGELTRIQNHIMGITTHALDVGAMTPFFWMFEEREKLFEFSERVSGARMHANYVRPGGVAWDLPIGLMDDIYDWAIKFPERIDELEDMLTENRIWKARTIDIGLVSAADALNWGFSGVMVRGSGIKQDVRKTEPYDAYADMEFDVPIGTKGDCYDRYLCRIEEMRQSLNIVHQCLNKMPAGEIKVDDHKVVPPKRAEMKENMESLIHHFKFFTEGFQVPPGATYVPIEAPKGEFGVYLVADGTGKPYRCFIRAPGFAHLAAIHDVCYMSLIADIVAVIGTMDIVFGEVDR
Experiment: biochemical
Format: biochemical
Settings: in vitro complex I dose response on C. elegans mitochondria; average of at least two biological replicates; fit in R (DRC); read-out: IC50 C. elegans complex I
Description: Mitochondria were isolated from the following free-living nematode strains: C. elegans—N2, CB3474, ECA882, ECA917, ECA1075, ECA1080; C. briggsae—AF16; P. pacificus—PS312; and P. hermaphrodita—B178. With the exception of the P. hermaphrodita strain B178, adult worms of each strain were grown in bulk through liquid culture to obtain mitochondria in sufficient quantities. Due to poor growth in liquid media, mixed stage populations of P. hermaphrodita were washed off and collected from NGM plates seeded with OP50. The isolation of mitochondria from all free-living nematode strains followed the protocol previously outlined in Burns et al.[24]. In brief, a 1 L saturated culture of E. coli HB101 was concentrated 20-fold in 50 mL complete S-medium. ~500,000 L1 worms synchronized from an embryo preparation performed the day prior were added to the S-media/HB101 suspension and grown to adulthood over the course of 3.5 days at 20 °C with shaking at 165 rpm. Following growth, worms were collected in 10 ×15 mL conical tubes and washed 7 times in M9 buffer. Worm suspensions were then combined into a single 15 mL conical tube and diluted to a final volume of 15 mL with M9 buffer. 1 mL aliquots of worm suspension were then distributed to 15 × 1.5 mL screw-cap microcentrifuge tubes and were pelleted at 500 g for 1 min. Excess M9 was aspirated without disturbing the worm pellet. 600 μL ice-cold isolate buffer A (250 mM sucrose, 10 mM Tris (pH 7.5), 1 mM EDTA, 1 mM PMSF (freshly prepared)) and 300 μL cold glass beads were then added to each tube. Tubes were incubated on ice for 10 min, and the worms were then lysed by bead beating (6 x 30 s, with 1 min cooling intervals). Tubes containing worm lysate were centrifuged at 1,000 g for 10 min at 4 °C and the supernatant was transferred to 15 new microcentrifuge tubes on ice. The tubes were centrifuged a second time at 1,000 g for 10 min at 4 °C and the supernatant was once again transferred to 15 new microcentrifuge tubes on ice. These tubes were then centrifuged at 16,000 g for 10 min at 4 °C. The resulting mitochondrial pellet was washed twice by re-suspension in 300 μL of ice-cold isolate buffer B (250 mM sucrose, 10 mM Tris (pH 7.5), 1 mM EDTA). Following the final wash, isolation buffer was aspirated from each tube and the pellets were flash-frozen in ethanol/dry ice and stored at −80 °C until needed.
(§1) The enzymatic activities of individual ETC complexes (I-IV) were assessed spectrophotometrically in isolated mitochondria using a Varioskan LUX Multimode plate reader (ThermoFisher Scientific). Mitochondrial pellets previously isolated were thawed on ice and resuspended in ice-cold isolation buffer (250 mM sucrose, 10 mM Tris (pH 7.5), 1 mM EDTA). The BCA assay (Walker, 1994) was used to quantify the protein concentration of mitochondria suspensions; solutions were diluted to a concentration of 0.2 mg/mL for use in all assays. For the complex I assay, mitochondria pellets were freeze-thawed on ice three times to increase enzyme accessibility. […] 20 μL mitochondria suspension was then added/mixed with a pipette to initiate the reaction. Immediately following the addition of mitochondria, absorbance was measured (complex I and II: 600 nm; complex III and IV: 550 nm) in 30 s intervals over 15 min. Enzymatic activity was determined in each reaction by plotting absorbance versus time and calculating the slope of the curve during the initial linear phase of the reaction. […] Percent activity of each complex was calculated by dividing the enzyme-specific activity of each well by the enzyme-specific activity of the corresponding solvent controls.
(§2) Chemical solutions were prepared in complex I assay buffer composed of 25 mM KPi buffer (pH 7.5), 3 mg/mL bovine serum albumin (BSA), 80 μM NADH, 60 μM decylubiquinone, 160 μM DCIP, 2 μM antimycin A and 2 mM KCN.
For preliminary screens of hit compounds, compounds were screened at 100 μM; data are the average of at least three biological replicates.

SMILES	IC50 [µM]
Nc1nc2ccccc2n1CCCOc1ccccc1 [Compound 7915320]	6.9
Cc1nc2ccccc2n1Cc1ccc(C(C)(C)C)cc1 [Compound 5521938]	2.57

Same assay, conditions: log10 of IC50 in µM; C. elegans mitochondria

SMILES	Log IC50 C. elegans complex I [µM]
Nc1nc2ccccc2n1CCCOc1ccccc1 [Compound 7915320]	0.84
Cc1nc2ccccc2n1Cc1ccc(C(C)(C)C)cc1 [Compound 5521938]	0.41

Same assay, conditions: wild-type (N2) mitochondria; read-out: C. elegans Complex I IC50

SMILES	IC50 [µM]
Cc1nc2ccccc2n1Cc1ccc(C(C)(C)C)cc1 [Compound 5521938]	2.57

Same assay, conditions: wild-type C. elegans mitochondria; estimated from fitted dose-response curves; read-out: C. elegans Complex I IC50

SMILES	IC50 [µM]
CCn1c(/C=C/c2ccc(F)cc2)nc2ccccc21 [Compound 7147614]	> 75
COc1ccccc1/C=C/c1nc2ccccc2[nH]1 [Compound 7148894]	> 75

Same assay, conditions: wild-type C. elegans mitochondria; read-out: C. elegans Complex I IC50

SMILES	IC50 [µM]
Nc1nc2ccccc2n1CCCOc1ccccc1 [Compound 7915320]	6.9
Cc1nc2ccccc2n1Cc1ccc(C(C)(C)C)cc1 [Compound 5521938]	2.57

Target: B. taurus (heart) complex I (Bos taurus, UniProt P03887+P17694+P42026)
Sequence (P03887 whole entry): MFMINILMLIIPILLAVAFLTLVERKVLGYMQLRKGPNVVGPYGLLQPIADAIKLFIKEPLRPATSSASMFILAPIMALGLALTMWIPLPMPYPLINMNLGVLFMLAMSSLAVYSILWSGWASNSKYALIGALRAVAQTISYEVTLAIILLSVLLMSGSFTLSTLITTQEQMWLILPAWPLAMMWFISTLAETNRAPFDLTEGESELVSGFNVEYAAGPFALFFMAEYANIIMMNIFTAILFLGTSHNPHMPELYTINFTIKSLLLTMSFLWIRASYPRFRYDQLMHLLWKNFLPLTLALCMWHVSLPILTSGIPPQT
Sequence (P17694 34-463): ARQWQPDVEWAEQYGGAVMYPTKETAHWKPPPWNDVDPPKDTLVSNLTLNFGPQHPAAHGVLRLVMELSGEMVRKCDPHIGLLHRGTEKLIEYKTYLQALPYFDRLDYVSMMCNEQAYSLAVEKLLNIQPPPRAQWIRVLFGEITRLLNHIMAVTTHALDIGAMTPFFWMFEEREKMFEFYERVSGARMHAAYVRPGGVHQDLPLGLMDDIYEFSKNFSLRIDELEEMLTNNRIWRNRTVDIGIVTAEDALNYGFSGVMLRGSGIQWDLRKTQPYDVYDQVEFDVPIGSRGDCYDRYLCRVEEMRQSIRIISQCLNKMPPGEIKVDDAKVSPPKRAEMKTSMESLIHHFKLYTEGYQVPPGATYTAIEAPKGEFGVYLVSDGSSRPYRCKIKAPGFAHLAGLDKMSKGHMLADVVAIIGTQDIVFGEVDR
Sequence (P42026 38-216): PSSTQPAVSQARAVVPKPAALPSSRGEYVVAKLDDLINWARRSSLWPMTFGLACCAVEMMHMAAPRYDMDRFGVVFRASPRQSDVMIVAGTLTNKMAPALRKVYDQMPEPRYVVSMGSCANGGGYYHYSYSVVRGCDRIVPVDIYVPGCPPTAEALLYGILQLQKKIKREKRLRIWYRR
Experiment: biochemical
Format: biochemical
Settings: B. taurus heart mitochondria; read-out: B. taurus Complex I IC50
Description: Six 8–10-week-old C57Bl/6 female mice (Charles River) were freshly dissected, and their livers and hearts collected into separate 1.5 mL microcentrifuge tubes. Organs were flash-frozen in liquid nitrogen and stored at −80 °C prior to use. The heart of a freshly slaughtered adult cow was obtained from a local abattoir (Peel Sausage Inc.), chopped into ~1-inch cubes and collected into 50 mL falcon tubes. Falcon tubes were flash-frozen in a container of dry ice and stored at −80 °C prior to use. Isolation of mitochondria from all mammalian tissue was carried out following the protocol described above. However, due to size, the initial homogenization of tissue was performed by 15 strokes in a dounce homogenizer (mouse heart) or with several 5 s pulses in small Nutribullet blender (cow heart). All mouse protocols for mouse care and dissection were reviewed and approved by the University of Toronto Animal Care Committee, in accordance with the Canadian Council on Animal Care.
as §1, §2
For preliminary screens of hit compounds, compounds were screened at 100 μM; data are the average of at least three biological replicates. The complex I and II activity assays were used for additional dose-response experiments. […] For dose responses of benzimidazole analogs, data represent the average of two biological replicates. For all other dose-responses, data represent the average of at least three biological replicates.

SMILES	IC50 [µM]
Nc1nc2ccccc2n1CCCOc1ccccc1 [Compound 7915320]	15.6
Cc1nc2ccccc2n1Cc1ccc(C(C)(C)C)cc1 [Compound 5521938]	1.18

Same assay, conditions: log10 of IC50 in µM; B. taurus mitochondria

SMILES	Log IC50 B. taurus complex I [µM]
Nc1nc2ccccc2n1CCCOc1ccccc1 [Compound 7915320]	1.19
Cc1nc2ccccc2n1Cc1ccc(C(C)(C)C)cc1 [Compound 5521938]	0.07

System: ben-1 mutant (ECA882) C. elegans
Experiment: microbe, parasite or virus in culture
Settings: Caenorhabditis elegans, read-out: C. elegans (ben-1) Development & Viability Assay LC50
Description: Liquid development and viability assays were adapted from a previously established chemical screening protocol (Burns et al.)[24]. In brief, a saturated culture of E. coli HB101 was concentrated 2-fold in liquid NGM and 40 μL of this suspension was distributed to each well of a 96-well flat-bottom culture plate. 0.5 μL chemical solution (or DMSO alone) was added to each well (1% DMSO v/v) using either a multi-channel pipette or a pinning tool (V&P Scientific). L1 worms synchronized from an embryo preparation performed the day prior were diluted to a concentration of ~2 worms/μL in M9 buffer; 10 μL worm suspension was then added to each well. Culture plates were sealed with parafilm and placed in a plastic container lined with wet paper towels to prevent evaporation. Containers were then incubated for 6 days at 20 °C with shaking at 165 rpm. Following incubation, 300 μL M9 was added to each well to decrease the turbidity of the HB101-NGM suspension. Single images of each microplate well were then taken on a Nikon Ti Eclipse inverted microscope (Nikon NIS Elements AR). Images were processed using Python scripts to isolate worm-associated pixels from background. Scores of worm development and viability were determined as the sum of worm-associated pixels in each well. Development/viability scores for each well were divided by the development /viability scores for the corresponding DMSO controls, resulting in a relative viability value for each chemical. At least three biological replicates were performed for each dose-response experiment; relative viability values were averaged across replicates. […]
anthelmintics. a. Chemical structures of four commercial benzimidazole anthelmintics (e.g., albendazole, […]
Dose response of four commercial […]
elegans strains: N2, wild type; ECA882, deletion (ben-1); ECA917, F200Y (ben-1); ECA1075, F167Y (ben-1); ECA1080, E198A (ben-1); CB3474, G104D (ben-1). The colour-coded scale denotes the phenotypic outcome of drug treatment (e.g., motility or viability) relative to DMSO controls; white/pale- […]
death and arrested development. c. […]
benzimidazole anthelmintics (blue) were conducted in C. elegans development and viability assays for wild type (N2) and ben-1 mutant (ECA882) C. elegans (see Supplementary Date File 1).
All data used for generation of dose-response curves is the mean of at least three […]
Supplementary Figure 7 (continued). Davie et al.

SMILES	LC50 [µM]
Nc1nc2ccccc2n1CCCOc1ccccc1 [Compound 7915320]	150
CCn1c(/C=C/c2ccc(F)cc2)nc2ccccc21 [Compound 7147614]	77
COc1ccccc1/C=C/c1nc2ccccc2[nH]1 [Compound 7148894]	188
Cc1nc2ccccc2n1Cc1ccc(C(C)(C)C)cc1 [Compound 5521938]	272

Same assay, conditions: Caenorhabditis elegans, read-out: C. elegans ben-1 log10 LC50 (converted)

SMILES	LC50 [µM]
Nc1nc2ccccc2n1CCCOc1ccccc1 [Compound 7915320]	150
CCn1c(/C=C/c2ccc(F)cc2)nc2ccccc21 [Compound 7147614]	77.1
COc1ccccc1/C=C/c1nc2ccccc2[nH]1 [Compound 7148894]	188
Cc1nc2ccccc2n1Cc1ccc(C(C)(C)C)cc1 [Compound 5521938]	272

System: L1 wild-type C. elegans
Experiment: not given
Settings: 50 μM compound; […]; hit = relative motility below 0.25 3 hours after removal of KCN

SMILES	Screen "Hit"
Cc1nc2ccccc2n1Cc1ccc(C(C)(C)C)cc1 [Compound 5521938]	Y (hits were identified as compounds that reduced relative motility below 0.25 (75% reduction))

Same assay, conditions: 50 μM; […]; KCN survival assay; hit = relative motility below 0.25

SMILES	Screen "Hit"
CCn1c(/C=C/c2ccc(F)cc2)nc2ccccc21 [Compound 7147614]	Y (hits were identified as compounds that reduced relative motility below 0.25 (75% reduction))
COc1ccccc1/C=C/c1nc2ccccc2[nH]1 [Compound 7148894]	Y (hits were identified as compounds that reduced relative motility below 0.25 (75% reduction))

Same assay, conditions: 50 μM; […]; worm motility 3 hours after the removal of KCN (endpoint); relative to DMSO controls; single biological replicate

SMILES	Relative Motility
CCn1c(/C=C/c2ccc(F)cc2)nc2ccccc21 [Compound 7147614]	0.130
COc1ccccc1/C=C/c1nc2ccccc2[nH]1 [Compound 7148894]	0.170

Same assay, conditions: active or inactive at 50 μM in C. elegans assay of RQ-dependent metabolism

SMILES	Hit
Nc1nc2ccccc2n1CCCOc1ccccc1 [Compound 7915320]	non
